These results are taken from patent US20110027240A1, “[…] ENTRY […] FOR THERAPY OF HIV INFECTION” (priority 2008, published 2011).

In this assay the test system is lentiviral vector particles pseudotyped with the HIV-1 JRFL envelope glycoprotein. As to the kind of experiment: Single-round infection assay. It is filed as cell-based. Conditions: PM-1 cells; supernatants of transfected HEK 293T cells; eGFP positive cells by flow cytometry. As to the method:
Virus production and titration: Viral vector supernatants were produced in HEK 293T cells. 6×10^6 cells were plated on 9.4 cm dishes 24 h prior to transfection. For transfection, the medium was changed and 25 μM chloroquine was added. 7.5 μg retroviral vector DNA was transfected by the calcium phosphate precipitation method. To generate GaLV pseudotyped retroviral particles 2 μg pALF-GaLV CM (GaLV CM expression plasmid; Stitz et al., Virology 2000) and 12.5 μg M57-DAW (MuLV gag/pol expression plasmid; Schambach et al., Gene Ther 2006) were transfected in addition. For the production of lentiviral vectors encoding eGFP, and pseudotyped with the HIV-1 JRFL envelope glycoprotein 7.5 μg pHR′SIN-cPPT-SEW-new (SIN lentiviral vector encoding eGFP), 12.5 μg pCMV-dR8.91 (lentiviral gag/pol expression plasmid), and 1 μg M118 (HIV-1 JRFL expression plasmid) were co-transfected. Medium was changed after 6-8 h incubation. […] In the case of lentiviral vectors expressing eGFP, vector titers were determined by transducing predefined numbers of PM-1 cells with serial dilutions of vector supernatant and analyzing the percentage of eGFP positive cells by flow cytometry. For retroviral vectors expressing secreted peptides transduced cells were analyzed by intracellular immunostaining for the peptide of interest. […]

Consider “WQQWERQVRFLDANITKLLEEAQIQQEKNMYELQELDKWASLWNWF [C46-EHO]”, for which the “antiviral (inhibitory) activity of supernatants containing secreted peptides” value was “slightly reduced”.
